Measurements as given in patent US6365407B1, “Culture medium composition useful for induction and proliferation of Taxus calli” (Council of Scientific & Industrial Research, priority 2001, dated 2002).

What was measured:
Format in all cases: cell-based, Himalayan Yew
[1] = tested on: callus lines of Taxus baccata ssp. Wallichiana Zucc. Pilg.; test: Taxane/taxol production in callus cultures, HPLC analysis
Excerpt: (§1) Thus the combination of the modified medium of the present invention with Picloram, Sucrose, Phytagel and Antioxidants is novel and conducive for good callus growth and Taxane production in vitro. The details are described herewith. The present invention also provides a process for the enhanced production of taxol and/or taxane class of molecules in the said callus cultures which comprises inoculating any plant part of the Himalayan yew in the said culture medium for a period of 30 to 60 days in dark and at a temperature ranging between 24-26° C., to obtain the undifferentiated mass of callus culture, extracting the product by conventional solvent extraction methods and analyzing the compounds by HPLC. The stems, needles and seeds (for excision of embryos and endosperms) derived from mature trees of Taxus baccata ssp. Wallichiana Zucc. Pilg., Himalayan Yew were first washed in soap water for five min. followed by 95% ethanol treatment for one min. The alcohol was washed off with four washes of double distilled water. Surface sterilization was done with 0.1% HgCl2 for 10 min. under vacuum followed by six washes with sterile distilled water. Following this, the explants were inoculated aseptically in pre-sterilized plastic dishes (55-mm diameter) containing the medium of the present invention.
The culture medium and method described in the present invention was tested on ex-plants of a number of matures trees (80-100 year old) collected from the Himalayas. The present protocol is applicable to all the ex-plants derived from all these trees of varying ages and genotypes. A series of callus lines were initiated and currently various callus lines of different ages produce the desirable taxanes. A number of callus lines of different ages and derived from diverse parent trees were analyzed by HPLC for detection of taxane class of molecules. […] For each of the callus lines, extractions were performed at least on three different occasions and duplicate HPLC injections were made on separate days to check for the reproducibility of the results.

[2] = tested on: callus tissues of Taxus baccata ssp. Wallichiana Zucc. Pilg.; test: Growth of callus tissues on Picloram supplemented media; details: compared to media supplemented with other auxins reported earlier in the literature
Excerpt: as §1, with “invention. The medium was prepared by mixing constituents mentioned in Tables 1 and 2. […]” for “invention.”

[3] = tested on: ex-plants of Taxus baccata ssp. Wallichiana Zucc. Pilg.; test: Callus induction from ex-plants of mature trees; details: with or without antioxidants
Excerpt: as §1, with “invention. The medium was prepared by mixing constituents mentioned in Tables 1 and 2. […]” for “invention.”

## Nc1c(Cl)c(Cl)nc(C(=O)O)c1Cl [Picloram]
[1]; 0.5-2 mg.l^-1 picloram, callus lines derived from needles of tree nos. 2, 6 and 7
  taxol content of callus: 190-300 μg taxol/g dry weight
[1]; 0.5-2 mg.l^-1 picloram, needles 0.934 μg taxol/g dry weight
  increase of taxol content in vitro than in vivo material: 203 to 321 times
[1]; 4-6 mg.l^-1 picloram, callus line 6, needles 0.0941 μg taxol/g dry weight
  increase of taxol content compared to the in vivo material: 5300-6200 times
[1]; 4-6 mg.l^-1 picloram, callus line 6 derived from needles
  taxol content of callus: 500-590 μg taxol/g dry weight
[1]; calli grown in Picloram supplemented media, compared to media supplemented with other auxins
  enhanced Taxane production: 2.0-5.4 times
[1]; highest producer callus
  Taxol production relative to in vivo needle tissues: ~5000 times
[2]
  enhanced growth rate of callus tissues: 1.5-2.0 times
[3]; 0.5-2 mg.l^-1 picloram, tree nos. 2, 6 and 7
  Callus formation observed in ex-plants: 90%
[3]; 4-6 mg.l^-1 picloram, tree nos. 1, 3 and 4
  Callus formation observed in ex-plants: 90%
